# Experimental data as given in US20090215859A1, “Compositions and methods for modulating dhr96” (priority 2004, published 2009).
# Entries after “also recorded” stand apart in the source; their conditions may differ.
# Tests used:
# DHR38 = details: cultured larval organs; cited from earlier work
# [1] = solvent or supplied form; cited from earlier work
# C. elegans nhr-8 mutant = details: mutation in the nuclear receptor nhr-8 gene; cited from earlier work
# [2] = tested on: wild type (Canton S) and DHR96 mutant adult flies; assay: Toxicity assay: adult flies exposed to DDT in 5% sucrose on filter paper, survival scored; format: in vivo, Drosophila melanogaster
# Experimental: A time course is shown. 20 wild type or DHR96^E25 mutant flies were treated with a high concentration of DDT (100 ng/μl) and assayed for survival every hour up to 10 hours. Each assay (A+B) was done in triplicate to determine the standard deviation as shown by the error bars.
# (§1) A dose response curve is shown. Twenty wild type or DHR96^E25 mutant flies were exposed to eight DDT concentrations, from 0.78 to 100 ng/μl, and then scored for survival 10 hours later. A similar test was conducted for sensitivity to tebufenizide (FIG. 11C) using larvae raised on food supplemented with the drug.
# Adult flies were raised on standard cornmeal/agar food and starved overnight under humid conditions at 25 0 C before treatment with DDT. A DDT stock solution was prepared by dissolving crystalline DDT (Sigma) in 100% ethanol. Appropriate DDT dilutions were made by diluting the DDT stock with 5% sucrose and pipetting 275 μl of the solution onto a strip of Whatman filter paper inside a small glass scintillation vial. Twenty adult flies were placed in each vial which was plugged with cotton. Mortality was scored 10 hours later at room temperature. For each DDT concentration, three replicates, each of twenty adult flies, were used. For the time course assay, 100 ng/μl of DDT was used and mortality scored every hour for 10 hours.
# As a test of DHR96 acting in a xenobiotic pathway, DHR96 mutants were tested for sensitivity to the pesticide DDT. Adult wild type flies (Canton S) and DHR96^16A were exposed or DHR96^E25 flies to varying concentrations of DDT and recorded survival rates after a fixed time.
# (§2) The adult Canton S flies and the DHR96E25 outcrossed lines were exposed to varying concentrations of drug and recorded effects after a fixed time (FIG. 11). DDT was assayed by starving young healthy adult flies overnight and then transferring them to vials, in three groups of 20 flies each, with filter paper soaked with 5% sucrose alone or 5% sucrose and DDT at different concentrations. The number of living flies was scored after 23 hours. […] Tebufenozide was administered to larvae in the food, and the number of surviving adult flies was scored.
# Cyp6g1 = Cyp6g1 induction by DDT in Canton S flies; format: in vivo, Drosophila melanogaster; details: one experiment
# Description: Validation can be conducted on selected genes, covering the different classes of detoxification pathways as well as new players that identified. Similar microarray studies using at least two other compounds, depending on which compounds show an effect in the viability and behavioral assays. It will be confirmed that wild type Canton S flies show a response to DDT using Cyp12d1 and other P450 genes as probes for northern blot hybridization. […] Other pesticides can also be surveyed for effects on a select group of Cyp gene targets to identify other compounds for use in comparative microarray profiling. […] Determining the transcriptional response to more than one xenobiotic compound can provide an initial impression of how insects respond to different toxins in their environment. […] Alternatively, the genetic response may be fine-tuned to combat specific xenobiotic compounds.
# [3] = tested on: Cyp6a2 and Cyp6a8 transcription; assay: Northern blot hybridization of Cyp transcription in adult flies treated with phenobarbital; details: adult flies treated with 0.3%, 1%, and 3% phenobarbital
# Experimental: Each treatment is done in triplicate. RNA is extracted from each set of animals, purified by TRIzol extraction (Gibco BRL) followed by RNeasy column chromatography (Qiagen), and ethanol precipitation. The RNA is then labeled and hybridized to Affymetrix GeneChip® Drosophila Genome 2.0 arrays designed to detect 18,500 Drosophila transcripts. Data is then analyzed using DChip 1.3 (http://biosun1.harvard.edu/complab/dchip/) and Significance Analysis of Microarrays (SAM).
# [4] = tested on: Canton S and outcrossed DHR96E25 mutant larvae; assay: Tebufenozide administered to larvae in the food, surviving adult flies scored; format: in vivo, Drosophila melanogaster; details: larvae raised on food supplemented with the drug
# Experimental: as §1, §2
# The above assays are for testing the effect of xenobiotics on adult flies. Compounds can also be tested for their larvicidal effects by administering them in the food to staged populations of larvae (Grant et al. Bull. Envir. Contam. Tox. 69:35-40, 2002). DHR96 and Canton S control flies are maintained on normal cornmeal/molasses agar supplemented with yeast. Egg lays are collected overnight from these stocks and used to innoculate fresh vials of food supplemented with a specific concentration of the drug to be tested. […]
# [5] = molecular target: T1, GAL4-DHR96 fusion protein (Drosophila melanogaster, UniProt Q24143); assay: GAL4-LBD activation assay in cultured third instar larval organs (UAS-lacZ, Xgal staining); format: cell-based; details: organs of heat-induced hs-GAL4-DHR96; UAS-lacZ third instar larvae cultured with 1×10^−5 M tebufenozide
# T1 construct: expressed in transfected cells; host or cells: transgenic Drosophila third instar larvae (hs-GAL4-DHR96; UAS-lacZ), dissected organs in culture
# Description: A gene fusion of the GAL4 DNA binding domain (DBD) and DHR96 ligand binding domain (LBD) is expressed upon heat-induction of the hsp70 promoter. The resultant fusion protein can bind to GAL4 response elements (UAS) on a seperate transgenic construct, but will only activate lacZ transcription in the presence of an appropriate ligand and/or co-factors (a ligand is shown). β-galactosidase expression is detected as the substrate from an Xgal staining reaction.
# Third instar larvae were heat-treated to induce GAL4-DHR96 expression, dissected, and organs were cultured in the presence of 1×10^−5 M tebufenozide. UAS-lacZ reporter gene expression was detected by Xgal staining. […]
# DHR96 activation can be assayed for by using a method established to follow the activation status of a nuclear receptor ligand binding domain (LBD) in a developing animal. […] Expression of β-galactosidase can be detected by histochemical staining using X-gal as a substrate, generating a blue dye (FIGS. 13, 14). […]
# An advantage of the GAL4-LBD system is that it can be used in tissues dissected from transgenic larvae to test specific compounds for their ability to activate the fusion protein. […] A similar assay can be used to test the ability of xenobiotic compounds to activate the GAL4-DHR96 fusion protein in cultured larval organs, using either UAS-lacZ or UAS-GFP as a readout. […]
# [6] = living flies scored after 23 hours
# T1 sequence (Q24143 99-723): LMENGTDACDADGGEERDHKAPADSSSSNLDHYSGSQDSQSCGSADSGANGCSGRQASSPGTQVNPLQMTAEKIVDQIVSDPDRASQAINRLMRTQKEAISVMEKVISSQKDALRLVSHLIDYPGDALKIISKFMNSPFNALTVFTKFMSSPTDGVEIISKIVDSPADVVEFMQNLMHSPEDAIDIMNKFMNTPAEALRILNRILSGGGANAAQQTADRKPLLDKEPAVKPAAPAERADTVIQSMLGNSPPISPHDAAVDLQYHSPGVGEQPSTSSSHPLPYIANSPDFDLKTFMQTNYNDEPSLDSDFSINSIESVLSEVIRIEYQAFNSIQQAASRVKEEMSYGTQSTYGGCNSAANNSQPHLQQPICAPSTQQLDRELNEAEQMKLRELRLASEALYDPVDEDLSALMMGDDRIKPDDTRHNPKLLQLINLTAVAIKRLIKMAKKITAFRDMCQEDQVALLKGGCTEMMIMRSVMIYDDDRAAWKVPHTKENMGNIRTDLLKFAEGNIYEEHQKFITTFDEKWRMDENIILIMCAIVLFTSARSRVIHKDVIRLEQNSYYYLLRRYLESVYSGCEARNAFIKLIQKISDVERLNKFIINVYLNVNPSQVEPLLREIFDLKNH
structure (smiles),measurement,setting,value
CC(C)(O)CC[C@@H](O)[C@](C)(O)[C@H]1CC[C@@]2(O)C3=CC(=O)[C@@H]4C[C@H](O)[C@@H](O)C[C@]4(C)[C@H]3CC[C@]12C [3-epi-20-hydroxyecdysone],Activation of DHR38 in the GAL4-LBD system,DHR38,can be activated
CNC(=O)Oc1cccc2ccccc12 [Carbaryl],Solubility,[1],water
COc1cc2c(c(OC)c1OC)-c1ccc(OC)c(=O)cc1[C@@H](NC(C)=O)CC2 [Colchicine],Resistance of nhr-8 mutant to the compound,C. elegans nhr-8 mutant,reduced resistance
same,Solubility,[1],ethanol
Clc1ccc(C(c2ccc(Cl)cc2)C(Cl)(Cl)Cl)cc1 [DDT],"Speed of death at a fixed concentration of DDT, DHR96 homozygotes vs wild type flies","[2]; 100 ng/μl DDT, mortality scored every hour for 10 hours",died more rapidly
same,"Sensitivity to DDT (survival after a fixed time at varying concentrations), DHR96 mutants compared to control animals","[2]; adult DHR96^16A or DHR96^E25 flies vs Canton S, 0.78 to 100 ng/μl DDT, scored 10 hours later",more sensitive
same,"Sensitivity to DDT treatment, original DHR96E25 mutant line vs Canton S",[2]; [6],more sensitive
same,"Sensitivity to DDT, outcrossed DHR96E25 line vs Canton S",[2]; [6],no such sensitivity
same,Cyp6g1 induction,Cyp6g1,low level
same,Solubility,[1],ethanol
COP(=S)(OC)Oc1ccc([N+](=O)[O-])cc1 [Methyl parathion],Solubility,[1],acetone
O=[N+]([O-])/C=C1\NCCCS1 [Nithiazine],Solubility,[1],water
CC(=O)[C@H]1[C@H](C#N)C[C@H]2[C@@H]3CC=C4C[C@@H](O)CC[C@]4(C)[C@H]3CC[C@@]21C [PCN],Solubility,[1],DMSO
C[n+]1ccc(-c2cc[n+](C)cc2)cc1 [Paraquat],Solubility,[1],water
CO[C@H]1/C=C/O[C@@]2(C)Oc3c(C)c(O)c4c(O)c(c(/C=N/N5CCN(C)CC5)c(O)c4c3C2=O)NC(=O)/C(C)=C\C=C\[C@H](C)[C@H](O)[C@@H](C)[C@@H](O)[C@@H](C)[C@H](OC(C)=O)[C@@H]1C [Rifampicin],Solubility,[1],DMSO
CCN(CC)C(=S)[S-].O.O.O.[Na+] [Sodium diethyldithiocarbamate trihydrate],Solubility,[1],water
CCN(CC)CCCC(C)Nc1ccnc2cc(Cl)ccc12 (stereo not shown) [chloroquine],Resistance of nhr-8 mutant to the compound,C. elegans nhr-8 mutant,reduced resistance
CCC1(c2ccccc2)C(=O)NC(=O)NC1=O [phenobarbital],Cyp6a2 and Cyp6a8 transcription in the DHR96 mutant,[3],no change in expression
same,Cyp6a2 and Cyp6a8 transcription in wild type animals,[3],dramatic induction
CCc1ccc(C(=O)NN(C(=O)c2cc(C)cc(C)c2)C(C)(C)C)cc1 [tebufenozide],Sensitivity of the outcrossed DHR96E25 mutant to tebufenozide (surviving adult flies),[4],slight sensitivity
same,Activation of GAL4-DHR96 (UAS-lacZ reporter gene expression),[5],activated; also recorded: reproducible and distinct pattern of activation
C[C@H]([C@H](O)CCC(C)(C)O)[C@H]1CC[C@@]2(O)C3=CC(=O)[C@@H]4C[C@@H](O)[C@@H](O)C[C@]4(C)[C@H]3CC[C@]12C [α-ecdysone],Activation of DHR38 in the GAL4-LBD system,DHR38,can be activated
